Columns and labels:
[1] = refractive index (Na D-line) (dimensionless); an = ratio of the nth substance listed; conditions: 101 kPa, Liquid, Standard Abbe refractometry
[2] = an = ratio of the nth substance listed; conditions: for surface tension liquid-gas: Ring tensiometer; for electrical conductivity / viscosity / mass density: 101 kPa, Liquid; for electrical conductivity: Alternating current cell with electrodes; for viscosity: Capillary tube (Ostwald / Ubbelohde) method; for mass density: Vibrating tube method

OCC(O)CO [glycerol] + O=C([O-])[O-].[K+].[K+]
Conditions | electrical conductivity, [2] [S/m] | mass density, [2] [kg/m3] | refractive index, [1] | surface tension liquid-gas, [2] [mN/m] | viscosity, [2] [mPa·s]
293.15 K, a1 = 4 | 0.0008 | 1477.9 | 1.4922 | 50.6 | 28104
293.15 K, a1 = 5 | 0.0034 | 1447.2 | 1.491 | 64.4 | 18018
293.15 K, a1 = 6 | 0.0052 | 1423.6 | 1.4897 | 69.5 | 5500
303.15 K, a1 = 4 | 0.003 | 1472 | 1.4906 | 46.1 | 10100
303.15 K, a1 = 5 | 0.0082 | 1441.4 | 1.4894 | 59.1 | 8899
303.15 K, a1 = 6 | 0.0112 | 1417.8 | 1.4882 | 66.8 | 3500
313.15 K, a1 = 4 | 0.0069 | 1466.1 | 1.4888 | 45.2 | 3330
313.15 K, a1 = 5 | 0.0154 | 1435.5 | 1.488 | 56.7 | 3440
313.15 K, a1 = 6 | 0.0247 | 1411.9 | 1.4866 | 65.6 | 1710
323.15 K, a1 = 4 | 0.0162 | 1460.2 | 1.4862 | 44.4 | 1400
323.15 K, a1 = 5 | 0.0371 | 1429.6 | 1.4853 | 55.3 | 1418
323.15 K, a1 = 6 | 0.0393 | 1405.9 | 1.4845 | 64 | 767
333.15 K, a1 = 4 | 0.0313 | 1454.1 | 1.4857 | 43.4 | 663
333.15 K, a1 = 5 | 0.076 | 1423.4 | 1.4839 | 54.7 | 646
333.15 K, a1 = 6 | 0.121 | 1399.8 | 1.4827 | 63 | 378
343.15 K, a1 = 4 | 0.0583 | 1448.1 | 1.4846 | 42.6 | 323
343.15 K, a1 = 5 | 0.139 | 1417.5 | 1.4818 | 53.7 | 323
343.15 K, a1 = 6 | 0.163 | 1393.8 | 1.4808 | 62.2 | 203
353.15 K, a1 = 4 | 0.204 | 1442.2 | 1.4839 | 41.6 | 200
353.15 K, a1 = 5 | 0.313 | 1411.4 | 1.4783 | 51.3 | 178
353.15 K, a1 = 6 | 0.341 | 1387.7 | 1.4789 | 61.5 | 115

O=C([O-])[O-].[K+].[K+] [potassium carbonate] + OCCO
Conditions | electrical conductivity, [2] [S/m] | mass density, [2] [kg/m3] | refractive index, [1] | surface tension liquid-gas, [2] [mN/m] | viscosity, [2] [mPa·s]
293.15 K, a2 = 6 | 0.22 | 1338.8 | 1.4598 | 28.4 | 227
293.15 K, a2 = 7 | 0.238 | 1314 | 1.4565 | 28.3 | 149
293.15 K, a2 = 8 | 0.231 | 1295.5 | 1.457 | 27.8 | 117
303.15 K, a2 = 6 | 0.34 | 1332.1 | 1.4576 | 27.8 | 120
303.15 K, a2 = 7 | 0.425 | 1307.3 | 1.4548 | 27.7 | 81
303.15 K, a2 = 8 | 0.365 | 1288.8 | 1.4556 | 27.3 | 66
313.15 K, a2 = 6 | 0.51 | 1325.3 | 1.455 | 27.3 | 69
313.15 K, a2 = 7 | 0.537 | 1300.6 | 1.4525 | 27.2 | 49
313.15 K, a2 = 8 | 0.531 | 1282.1 | 1.4536 | 26.7 | 40
323.15 K, a2 = 6 | 0.78 | 1318.5 | 1.4533 | 26.8 | 42
323.15 K, a2 = 7 | 0.801 | 1293.8 | 1.4507 | 26.7 | 31
323.15 K, a2 = 8 | 0.73 | 1275.3 | 1.4513 | 26.1 | 26
333.15 K, a2 = 6 | 1.17 | 1311.7 | 1.4519 | 26.1 | 28
333.15 K, a2 = 7 | 1.18 | 1287 | 1.449 | 26 | 21
333.15 K, a2 = 8 | 1.04 | 1268.5 | 1.4496 | 25.5 | 18
343.15 K, a2 = 6 | 1.51 | 1304.9 | 1.4485 | 25.5 | 20
343.15 K, a2 = 7 | 1.53 | 1280.1 | 1.4459 | 25.3 | 15
343.15 K, a2 = 8 | 1.4 | 1261.7 | 1.4469 | 24.8 | 13

From the NIST ThermoML archive (doi:10.1016/j.tca.2013.10.028)
